{
  "source": "patent US20230114207A1",
  "about": "“THE COMBINATION OF CYCLIN DEPENDENT KINASE 7 INHIBITOR AND IMMUNOTHERAPY FOR TREATMENT OF CANCER” (Dana-Farber Cancer Institute, Inc., priority 2019, published 2023)",
  "key": {"RPP631 cells": {"system": "RPP631 cells", "experiment": "EdU and MCM2 imaging by STORM", "assay_type": "cell-based, mouse", "settings": "100 nM, 48 and 72 hr", "description": "RPP631 cells were incubated in the presence of 100 nM YKL-5-124 for 48-72 hr. EdU was pulsed during the last 30 minutes of YKL-5-124 treatment. Treated cells were pre-extracted using 0.5% Triton in CSK buffer (10 mM Hepes, 300 mM Sucrose, 100 mM NaCl, and 3 mM MgCl2, pH=7.6) for 10 minutes, and fixed with paraformaldehyde (4%) for 30 minutes. Cells were then rinsed 3 times with PBS and blocked (2% glycine, 2% BSA, 0.2% gelatin, and 50 mM NH4Cl in PBS) overnight at 4° C. for further staining. […]\nSTORM imaging was performed on a customized inverted microscope. […] Cell samples were sequentially illuminated with 639 and 750 laser lines and the emitted fluorescence was collected by the same objective with a 2× magnification tube lens (Diagnostic Instruments). The fluorescence was then filtered by single band filters (Semrock FF01-676/37 and FF02-809/81) switched in a filter wheel accordingly. […]\nEach 2000-frame single-molecule image stack was submitted to a home-built software for precise single-molecule localization. […] The fitting accuracy was evaluated using Cramer-Rao Lower Bound (CRLB). Note that the patterned read-out noise of the sCMOS camera was calibrated before imaging. Such read-out noise for each pixel was approximated into a Gaussian distribution and convolved with the Poisson shot noise for MLE fitting. […] The number of fluorophores is proportional to the quantity of EdU and MCM2. […]"}, "CDK7": {"target": "T1, CDK7 (Mus musculus, UniProt Q03147)", "T1 construct": "from tissue", "T1 sequence (Q03147 2-346 limits assumed)": "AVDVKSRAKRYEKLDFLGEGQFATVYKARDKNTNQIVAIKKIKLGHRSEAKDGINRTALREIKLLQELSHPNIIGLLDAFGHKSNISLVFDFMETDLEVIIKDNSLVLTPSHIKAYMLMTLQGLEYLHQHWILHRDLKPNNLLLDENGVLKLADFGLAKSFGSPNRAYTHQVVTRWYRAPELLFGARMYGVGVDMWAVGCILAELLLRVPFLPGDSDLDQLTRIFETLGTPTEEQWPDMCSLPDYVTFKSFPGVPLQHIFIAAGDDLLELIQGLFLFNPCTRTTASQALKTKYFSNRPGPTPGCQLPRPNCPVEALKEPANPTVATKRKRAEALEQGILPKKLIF", "T1 sequence (Q61458 whole entry partner)": "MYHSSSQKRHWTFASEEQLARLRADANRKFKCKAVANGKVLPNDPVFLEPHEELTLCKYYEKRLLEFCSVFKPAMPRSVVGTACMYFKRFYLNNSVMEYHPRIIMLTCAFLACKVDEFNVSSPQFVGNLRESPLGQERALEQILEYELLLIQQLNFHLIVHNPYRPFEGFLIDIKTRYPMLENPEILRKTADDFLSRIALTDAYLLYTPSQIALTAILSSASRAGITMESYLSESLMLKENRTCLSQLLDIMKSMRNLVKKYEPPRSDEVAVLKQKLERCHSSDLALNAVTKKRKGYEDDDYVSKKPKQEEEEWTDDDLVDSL", "T1 sequence (P51949 whole entry partner)": "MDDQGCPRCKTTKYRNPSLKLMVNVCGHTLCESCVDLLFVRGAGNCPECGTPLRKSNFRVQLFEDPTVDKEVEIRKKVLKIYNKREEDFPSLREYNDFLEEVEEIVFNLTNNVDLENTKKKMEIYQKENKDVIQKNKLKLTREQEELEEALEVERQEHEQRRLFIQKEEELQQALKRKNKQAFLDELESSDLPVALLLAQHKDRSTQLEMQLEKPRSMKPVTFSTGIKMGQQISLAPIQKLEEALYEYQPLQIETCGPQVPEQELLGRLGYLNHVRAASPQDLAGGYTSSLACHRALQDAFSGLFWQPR", "experiment": "In vivo target engagement by competitive pulldown assay", "settings": "10 mg/kg", "description": "Bio-THZ1 pulldown experiments followed by western blotting of enriched proteins was performed as described in Kwiatkowski, et al., Nature, 2014, 511, 616-620. Briefly, cells were treated with YKL-5-124 or DMSO for 6 hr (in vitro) or 72 hr (in vivo). Following treatment, cells were washed twice with cold PBS and then lysed in the following lysis buffer: 50 mM TrisHCI pH 8.0, 150 mM NaCl, 1% NP-40, 5 mM EDTA, 1 mM DTT, and protease/phosphatase cocktails. Following clearance, lysates were treated with biotinylated THZ1 for pulldown overnight at 4° C. Lysates were further incubated at room temperature for 3 hr to increase the efficiency of covalent bond formation. Lysates were then incubated with streptavidin agarose for pulldown for an additional 2-3 hr at 4° C. Agarose beads were washed 5 times with lysis buffer and then boiled in 2×SDS at 95° C. SDS-page resolved precipitated proteins were probed for the indicated proteins."}, "DMS79 cells": {"system": "DMS79 cells", "experiment": "BrdU analysis", "assay_type": "cell-based, human", "settings": "100 nM, 24 and 48 hour", "description": "Cells were seeded in 6-well plates (0.5-1×10^6 cells/well) in media and treated with YKL-5-124 at indicated concentrations and time points. Prior to collection, cells were pulsed with […] BrdU (BD Biosciences, #559619) for 2-4 hr (depending on cell line doubling time) and collected by centrifugation. Hereafter cells were permeabilized, fixated and stained according to BrdU kit instruction (BD Biosciences, Cat #559619). Cells were gated for BrdU incorporation (FITC) and 7-aminoactinomycin D (7-AAD) to quantify cells in G1, S (BrdU positive) and G2/M."}, "RPP631 and DMS79 cells": {"system": "RPP631 and DMS79 cells", "experiment": "Cell cycle analysis (propidium iodide flow cytometry)", "assay_type": "cell-based, mouse, human", "description": "Cells were seeded in 6-well plates (0.5-1×10^6 cells/well) in media and treated with YKL-5-124 at indicated concentrations and time points. Cells were collected by centrifugation, washed in cold PBS and resuspended in 1 ml of 80% EtOH in PBS and stored overnight at −20° C. Cells were again collected by centrifugation and washed 3× with cold PBS. Hereafter cells were resuspended in PBS containing: 0.1% Triton X-100, 25 μg/ml Propidium Iodide (PI) and 0.2 mg/ml RNase A and incubated for 45 min at 37° C. After incubation, cells were placed at 4° C. until ready for analysis with flow cytometry. Cells were gated for PI staining and cell accumulation in G1, S and G2/M were calculated using ModFit LT software."}},
  "data": [
    {"smiles": "C=CC(=O)Nc1ccc(C(=O)Nc2n[nH]c3c2CN(C(=O)N[C@H](CN(C)C)c2ccccc2)C3(C)C)cc1", "note": "[YKL-5-124]", "values": [
      {"measurement": "EdU content in each nucleus and in each focus", "setting": "RPP631 cells", "result": "dramatic decrease"},
      {"measurement": "MCM2 content in each nucleus and replication focus", "setting": "RPP631 cells", "result": "significant decline"},
      {"measurement": "target engagement in tumor-bearing mice", "setting": "CDK7", "result": "further confirmed"},
      {"measurement": "BrdU-incorporated S-phase cells", "setting": "DMS79 cells", "result": "significant decrease"},
      {"measurement": "cells in G1 phase", "setting": "RPP631 and DMS79 cells; 72 hours", "result": "significant accumulation"},
      {"measurement": "cells in S phase", "setting": "RPP631 and DMS79 cells; 72 hours", "result": "corresponding loss"},
      {"measurement": "percentage of cells in G2/M phase", "setting": "RPP631 and DMS79 cells; concentrations up to 500 nM", "result": "not significantly changed"}
    ]}
  ]
}
